The values that follow come from patent publication US20180055844A1 (Celgene Corporation, priority 2011, published 2018).

SMILES strings stand for the structures.

Common to all, as to assay: Activity against lenalidomide resistant cell lines
What all share (assay type): cell-based

One test deals with 1051. The settings on record: 1051, n = 3. The procedure:
(§1) The ability of compounds to effect the proliferation of MM cell lines was investigated in an in vitro study. Uptake of [^3H]-thymidine by H929 MM cells and 7-AAD uptake in several MM cell lines (H929, U266B1, Anbl-6, KMS-34, OPM-2, DF-15, DF15/R, CAG, MM1.S and LP-1) was measured as an indicator of cell proliferation. Cells were incubated in the presence of compounds for 72 hours ([^3H]-thymidine was included for the last 6 hours of the incubation period) or 5 days followed by 7-AAD uptake to measure and count viable cells.

Another test relates to 1052. The settings on record: 1052, n = 3. The method, then: as §1
Another test has as its system 1053. The settings on record: 1053, n = 3. The procedure:
as §1

The subject of another test is 1054. The settings on record: 1054, n = 3. The procedure:
as §1

The subject of a further test is D1. The settings on record: D1, n = 3. The method, then:
as §1

For a further test, the system named is H929. The note with it: Homo sapiens, NCI-H929; H929, n = 3. The method, then: as §1

On to `Nc1cccc2c1CN(C1CCC(=O)NC1=O)C2=O` (stereo not drawn) [Lenolidomide, Lenalidomide, reference compound], for which the IC50 result in the test with 1051 was “No IC50”; in the test on 1052, “No IC50”; with 1053 it was “No IC50”; in the test on 1054 it was “No IC50”; with D1, “No IC50”; with H929, 12.6 µM.
